According to the C3SDB collision cross section collection:

Legend:
[1] = instrument: DT, stepped-field
[2] = instrument: DT, single field, calibrated with Agilent tune mix (Agilent)
[3] = instrument: DT, stepped-field; remark: listed apart in the source

Row | collision cross section (N2) ([1]; [M+H]+) [Å²] | collision cross section (N2) ([1]; [M+Na]+) [Å²] | collision cross section (N2) ([3]; [M+Na]+) [Å²] | Structure (SMILES) | also measured
1 | – | – | 277.43 | CCCCC/C=C\C/C=C\CCCCCCCCCC(=O)O[C@H](COC(=O)CCCCCCC/C=C\CCCCCCCC)COP(=O)(O)O [PA(38:03)] | collision cross section (N2) ([3]; [M+2Na-H]+): 279.8 Å²
2 | – | – | 281.79 | CCCCC/C=C\C/C=C\C/C=C\C/C=C\CCCCCC(=O)O[C@H](COC(=O)CCCCCCC/C=C\CCCCCCCC)COP(=O)(O)O [PA(40:05)] | collision cross section (N2) ([3]; [M+2Na-H]+): 283.07 Å²
3 | – | – | 279.16 | CCCCCCCC/C=C\CCCCCCCCCC(=O)O[C@H](COC(=O)CCCCCCCCCCC)COP(=O)([O-])OCC[N+](C)(C)C [PC(32:01)] | collision cross section (N2) ([3]; [M+HCOO]-): 284.71 Å²; collision cross section (N2) ([3]; [M+H]+): 276.5 Å²
4 | – | – | 276.86 | CCCCC/C=C\C/C=C\CCCCCCCC(=O)O[C@H](COC(=O)CCCCCCCCCCCCC)COP(=O)([O-])OCC[N+](C)(C)C [PC(32:02)] | –
5 | – | – | 283.1 | CCCCCC/C=C\CCCCCCCCCC(=O)O[C@H](COC(=O)CCCCCCC/C=C\CCCCCC)COP(=O)([O-])OCC[N+](C)(C)C [PC(34:02)] | collision cross section (N2) ([3]; [M+Cl]-): 289.37 Å²; collision cross section (N2) ([3]; [M+HCOO]-): 289.31 Å²; collision cross section (N2) ([3]; [M+H]+): 279.51 Å²; collision cross section (N2) ([3]; [M+K]+): 283.28 Å²
6 | – | – | 281.98 | CCCC/C=C\CCCCCCCC(=O)OC[C@H](COP(=O)([O-])OCC[N+](C)(C)C)OC(=O)CCCCCCCCC/C=C\C/C=C\CCCCC [PC(34:03)] | collision cross section (N2) ([3]; [M+Cl]-): 287.96 Å²; collision cross section (N2) ([3]; [M+HCOO]-): 288.8 Å²; collision cross section (N2) ([3]; [M+H]+): 277.12 Å²
7 | – | – | 287.14 | CCCCCCCC/C=C\CCCCCCCC(=O)O[C@H](COC(=O)CCCCCCCCCCCCCCCC)COP(=O)([O-])OCC[N+](C)(C)C [PC(35:01)] | collision cross section (N2) ([3]; [M+H]+): 284.63 Å²
8 | 287.13 | 285.07 | – | CO[C@H]1/C=C/O[C@@]2(C)Oc3c(C)c(O)c4c(c3C2=O)C(=O)/C(=C/NN2CCN(C)CC2)C(=C4O)NC(=O)/C(C)=C\C=C\[C@H](C)[C@H](O)[C@@H](C)[C@@H](O)[C@@H](C)[C@H](OC(C)=O)[C@@H]1C [Rifampicin] | –
9 | 236.2 | 251.61 | – | C[C@@H]1O[C@@H](OC[C@H]2O[C@@H](Oc3c(-c4ccc(O)c(O)c4)oc4cc(O)cc(O)c4c3=O)[C@H](O)[C@@H](O)[C@@H]2O)[C@H](O)[C@H](O)[C@H]1O [Rutin] | collision cross section (N2) ([2]; [M+H]+): 232.6 Å²; collision cross section (N2) ([2]; [M-H]-): 231.04 Å²
10 | 186.46 | – | – | C[S+](CC[C@H](N)C(=O)[O-])C[C@H]1O[C@@H](n2cnc3c(N)ncnc32)[C@H](O)[C@@H]1O (stereo partly drawn) [S-Adenosyl-L-methionine] | –
11 | 203.2 | – | – | CCCCCCSC[C@H](NC(=O)CC[C@H](N)C(=O)O)C(=O)NCC(=O)O [S-Hexyl-glutathione] | –
12 | – | 191.96 | – | C=C[C@H]1[C@H](O[C@@H]2O[C@H](CO)[C@@H](O)[C@H](O)[C@H]2O)OC=C(C(=O)OC)[C@H]1CC=O [Secologanin] | –
13 | 149.5 | – | – | O=C(O)C1=C[C@@H](O)[C@@H](O)[C@H](O)C1 [Shikimic Acid] | –
14 | – | 191.83 | – | CCCCCCCCCCCCCCCCCC(=O)O [Stearic Acid] | –
15 | 122.66 | – | – | O=C(O)CCC(=O)O [Succinic Acid] | –
16 | 156.07 | 152.77 | – | Nc1ccc(S(N)(=O)=O)cc1 [Sulfanilamide] | –
17 | 172.53 | – | – | Cc1ncc(C[n+]2csc(CCOP(=O)(O)O)c2C)c(N)n1 [Thiamine Monophosphate] | –
18 | 163.84 | 169.74 | – | Cc1cn([C@H]2C[C@H](O)[C@@H](COP(=O)(O)O)O2)c(=O)[nH]c1=O [Thymidine 5'-Monophosphate] | –
19 | – | 192.43 | – | O=P(O)(O)OC[C@H]1O[C@H](O[C@H]2O[C@H](CO)[C@@H](O)[C@H](O)[C@H]2O)[C@H](O)[C@@H](O)[C@@H]1O [Trehalose 6-Phosphate] | –
20 | 126.37 | 139.87 | – | C[n+]1cccc(C(=O)[O-])c1 [Trigonelline] | –

The remaining lines, values behind:

Row | Structure (SMILES) | collision cross section (N2) ([1]; [M+H]+) [Å²] | collision cross section (N2) ([1]; [M+Na]+) [Å²] | collision cross section (N2) ([3]; [M+Na]+) [Å²] | also measured
21 | C[C@H]1O[C@@H](n2cnc3c(N)ncnc32)[C@H](O)[C@@H]1O [5'-Deoxyadenosine] | 162.1 | 171.99 | – | collision cross section (N2) ([2]; [M+Na]+): 166.8 Å²; collision cross section (N2) ([2]; [M-H]-): 151.91 Å²
22 | Cn1c(=O)c2c(ncn2C)n(C)c1=O [Caffeine] | 145.4 | 142.93 | – | collision cross section (N2) ([2]; [M+H]+): 140.9 Å²
23 | OC[C@H]1O[C@@H](O[C@H]2[C@H](O)[C@@H](O)[C@H](O)O[C@@H]2CO)[C@H](O)[C@@H](O)[C@@H]1O [Cellobiose] | – | 178.66 | – | collision cross section (N2) ([2]; [M+Na]+): 178.1 Å²
24 | CCCCCCCCCCCCCCCCCC(=O)N[C@@H](CO)[C@H](O)CCCCCCCCCCCCCCC [Cer(36:00)] | – | – | – | collision cross section (N2) ([3]; [M+H]+): 261.92 Å²
25 | CCCCCCCCCCCCCCCCCCCC(=O)N[C@@H](CO)[C@H](O)CCCCCCCCCCCCCCC [Cer(38:00)] | – | – | – | collision cross section (N2) ([3]; [M+H]+): 267.37 Å²
26 | CCCCCCCCCCCCC=CC[C@@H](O)[C@H](CO)NC(=O)CC=CCCCCCCCCCCCCCCCCCC [Cer(40:02)] | – | – | – | collision cross section (N2) ([3]; [M+H-H2O]+): 267.47 Å²; collision cross section (N2) ([3]; [M+H]+): 272.27 Å²
27 | CCCCCCCCCCCCC=CC[C@@H](O)[C@H](CO)NC(=O)CC=CCCCCCCCCCCCCCCCCCCCCCC [Cer(44:02)] | – | – | – | collision cross section (N2) ([3]; [M+H-H2O]+): 279.7 Å²
28 | OCC1(O)OC[C@@H](O)[C@@H](O)[C@@H]1O (stereo partly drawn) [D-Fructose] | – | 141.93 | – | collision cross section (N2) ([2]; [M+Na]+): 141.4 Å²
29 | Nc1ccn([C@H]2C[C@H](O)[C@@H](CO)O2)c(=O)n1 [Deoxycytidine] | – | 158.41 | – | collision cross section (N2) ([2]; [M+Na]+): 154.5 Å²; collision cross section (N2) ([2]; [M-H]-): 146.84 Å²
30 | O=C(COP(=O)(O)O)[C@@H](O)[C@H](O)[C@H](O)CO [Fructose-1-phosphate] | – | 159.68 | – | collision cross section (N2) ([2]; [M+Na]+): 155.4 Å²; collision cross section (N2) ([2]; [M-H]-): 141.86 Å²
31 | CCCCCCCCCCCCCCCCCC(=O)N[C@@H](CO[C@@H]1O[C@H](CO)[C@@H](O)C(O)C1O)[C@H](O)CCCCCCCCCCCCCCC (some centres not stated) [GlcCer(36:00)] | – | – | – | collision cross section (N2) ([3]; [M+H]+): 284.59 Å²
32 | CCCCCCCCCCCCC=CC[C@@H](O)[C@H](CO[C@@H]1O[C@H](CO)[C@@H](O)C(O)C1O)NC(=O)CC=CCCCCCCCCCCCCCC (some centres not stated) [GlcCer(36:02)] | – | – | 281.52 | collision cross section (N2) ([3]; [M+H]+): 281.37 Å²
33 | CCCCCCCCCCCCC=CC[C@@H](O)[C@H](CO[C@@H]1O[C@H](CO)[C@@H](O)C(O)C1O)NC(=O)CCCCCCCCCCCCCCCCCCCC (some centres not stated) [GlcCer(39:01)] | – | – | 291.95 | –
34 | CCCCCCCCCCCCC=CC[C@@H](O)[C@H](CO[C@@H]1O[C@H](CO)[C@@H](O)C(O)C1O)NC(=O)CC=CCC=CCCCCCCCCCCCCCCC (some centres not stated) [GlcCer(40:03)] | – | – | 290.28 | –
35 | CCCCCCCCCCCCCCCCCCCCCCCC(=O)N[C@@H](CO[C@@H]1O[C@H](CO)[C@@H](O)C(O)C1O)[C@H](O)CCCCCCCCCCCCCCC (some centres not stated) [GlcCer(42:00)] | – | – | 303.14 | collision cross section (N2) ([3]; [M+H]+): 302.3 Å²
36 | CCCCCCCCCCCCC=CC[C@@H](O)[C@H](CO[C@@H]1O[C@H](CO)[C@@H](O)C(O)C1O)NC(=O)CC=CCCCCCCCCCCCCCCCCCCCC (some centres not stated) [GlcCer(42:02)] | – | – | 299.53 | collision cross section (N2) ([3]; [M+Cl]-): 298.77 Å²; collision cross section (N2) ([3]; [M+H-H2O]+): 296.4 Å²; collision cross section (N2) ([3]; [M+HCOO]-): 301.95 Å²; collision cross section (N2) ([3]; [M+H]+): 299.26 Å²
37 | CCCCCCCCCCCCCCCCCCCCCCCCCCCCC(=O)N[C@@H](CO[C@@H]1O[C@H](CO)[C@@H](O)C(O)C1O)[C@H](O)CCCCCCCCCCCCCCC (some centres not stated) [GlcCer(47:00)] | – | – | – | collision cross section (N2) ([3]; [M+Na-2H2O]+): 313.61 Å²
38 | Cn1cncc1C[C@H](NC(=O)CCN)C(=O)O [L-Anserine] | 155.97 | 159.77 | – | collision cross section (N2) ([2]; [M+H]+): 154.1 Å²; collision cross section (N2) ([2]; [M-H]-): 152.32 Å²
39 | CC(=O)NCCCCN [N-Acetylputrescine] | 131.7 | 137.57 | – | collision cross section (N2) ([2]; [M+H]+): 128.3 Å²; collision cross section (N2) ([2]; [M-H]-): 127.22 Å²
40 | C[C@@H]1O[C@@H](O[C@H]2[C@H](Oc3cc(O)c4c(c3)O[C@H](c3ccc(O)cc3)CC4=O)O[C@H](CO)[C@@H](O)[C@@H]2O)[C@H](O)[C@H](O)[C@H]1O [Naringin] | 240.62 | 234.02 | – | collision cross section (N2) ([2]; [M+H]+): 237.5 Å²
41 | CCCCC/C=C\C/C=C\CCCCCCCCCC(=O)O[C@H](COC(=O)CCCCCCC/C=C\CCCCCC)COP(=O)(O)O [PA(36:03)] | – | – | 270.97 | collision cross section (N2) ([3]; [M+2Na-H]+): 271.74 Å²
42 | CCCCC/C=C\C/C=C\CCCCCCCCCCCC(=O)O[C@H](COC(=O)CCCCCCCCCCCCCCC)COP(=O)(O)O [PA(38:02)] | – | – | 279.74 | –
43 | CCCCC[C@H](O)/C=C/[C@@H]1[C@@H](C/C=C\CCCC(=O)O)[C@@H]2C[C@H]1OO2 [Prostaglandin H2] | – | 202.63 | – | –
44 | NCCc1c[nH]c2ccc(O)cc12 [Serotonin] | 151.9 | 150.8 | – | collision cross section (N2) ([2]; [M-H]-): 135.85 Å²
